According to patent publication US10526373B2, “Peptide showing melanin generation-promoting activity and use thereof” (CAREGEN CO., LTD., priority 2016, dated 2020):
No end group written: not given here.

Legend:
Format in all cases: cell-based
[1] = tested on: tyrosinase; test: Western blotting of melanogenesis-related proteins: tyrosinase; details: mouse melanin cell line B16F10, 72-hour incubation
Description: (§1) Melanocytes (B16F10 cell line) were incubated on 6-well culture plates in an incubator for 24 hours, and were treated with the peptides of the present invention with different concentrations. After 72-hour incubation, the cells were lysed, and the cells were subjected to western blotting using specific antibodies (two types, both by Santa Cruz Biotechnology, USA) to investigate the expression of MITF and tyrosinase, which are the factors involved in melanogenesis.

[2] = tested on: tyrosinase; test: RT-PCR of melanogenesis-related genes: tyrosinase; details: mouse melanin cell line B16F10, 72 hours
Description: (§2) Melanocytes (B16F10 cell line) were incubated on 6-well culture plates in an incubator for 24 hours, and were treated with the peptides of the present invention with different concentrations. After RNA was extracted from the cells incubated for 72 hours, cDNA was prepared. PCR was performed by using respective primers specific to MITF and tyrosinase, which are the factors involved in melanogenesis, and the expression changes of the respective genes were observed.

[3] = tested on: melanocytes (B16F10 cell line); test: Melanogenesis assay; details: mouse melanin cell line B16F10, peptide at different concentrations, 72 hours
Description: After melanocytes (B16F10 cell line) in 6-well plates were cultured in an incubator at 37° C. for 24 hours, the medium of each plate was removed and exchanged with fresh medium, followed by treatment with the present peptide at different concentrations. After the incubation for 72 hours, the culture medium was removed, and the cells were taken off and then transferred into 5-ml tubes, followed by centrifugation at 13,000 rpm for 3 minutes. The supernatant was removed, and cell pellets were collected to observe melanin. Then, 150 μl of 2 M NaOH was added to the cell pellets to lyse intracellular melanin at 60° C. for 30 minutes. Then, 100 μl of the supernatant obtained from the lysis was added into each well of 96-well plates, and the absorbance was measured at 490 nm.

[4] = tested on: tyrosinase; test: Tyrosinase activity assay in B16F10 cell lysate (L-dopa); details: mouse melanin cell line B16F10, peptide at different concentrations, 72 hours
Description: Melanoma cell line (B16F10) cells were cultured in 6-well culture plates for 24 hours, and treated with the peptide with difference concentrations, followed by culture for 72 hours. The 6-well culture plates were loaded on ice and washed with cool PBS, and then 300 μl of 0.1 M sodium phosphate buffer (pH 6 lysis buffer) containing 1% Triton X-100 was added. The cells were collected in 1.5-mL tubes, and then cell membranes were disrupted by repeating five times rapid-freezing at […] and thawing. After centrifugation at 13,000 rpm for 20 minutes, the supernatant was collected in other 1.5-mL tubes, and the protein of the samples was quantified. The samples were diluted to have the same protein concentration and then dispensed in every three wells in 96-well culture plates, and then 20 μl of 10 mM L-dopa was added, followed by incubation at 37° C. for 1 hour. The absorbance was measured at 475 nm.

[5] = tested on: TRP1; test: RT-PCR of melanogenesis-related genes: TRP1; details: mouse melanin cell line B16F10, 72 hours
[6] = tested on: MITF; test: RT-PCR of melanogenesis-related genes: MITF; details: mouse melanin cell line B16F10, 72 hours
Description: as §2

[7] = tested on: CREB; test: Melanogenesis-related protein activity assay (CREB phosphorylation, western blotting); details: mouse melanin cell line B16F10, 72-hour incubation
Description: Melanocytes (B16F10 cell line) were incubated on 6-well culture plates in an incubator for 24 hours, and were treated with the peptide of the present invention with different concentrations. After 72-hour incubation, the cells were lysed, and the cells were subjected to western blotting using specific antibodies (Cell Signaling Technology, USA) to investigate the phosphorylation level of CREB, which is a signaling substance involved in melanogenesis.

[8] = tested on: MITF; test: Western blotting of melanogenesis-related proteins: MITF; details: mouse melanin cell line B16F10, 72-hour incubation
Description: as §1

FCLGPCPYIWSL (cysteine pairing not given here) [SEQ ID NO: 2]
increased: protein expression of tyrosinase [1] | mRNA expression of tyrosinase [2] | melanogenesis (melanin, absorbance at 490 nm) [3] | tyrosinase activity (absorbance at 475 nm) [4] | mRNA expression of TRP1 [5] | mRNA expression of MITF [6]

RWRRKIEN [SEQ ID NO: 1]
increased: protein expression of tyrosinase [1] | mRNA expression of tyrosinase [2] | melanogenesis (melanin, absorbance at 490 nm) [3] | tyrosinase activity (absorbance at 475 nm) [4] | mRNA expression of TRP1 [5] | phosphorylation level of CREB [7] | protein expression of the MITF transcriptional factor [8] | mRNA expression of MITF [6]
